From patent US10508113B2, “Inhibitors of tyrosine kinase 2 mediated signaling” (AbbVie Inc., priority 2018, dated 2019)

Columns and labels:
[1] = target: T1, Jak1 (Homo sapiens, UniProt P23458); assay: Jak1 (PSTAT3 TF1) alpha screen assay: inhibition of IL-6 induced phosphorylation of STAT3 in TF1 cells; assay type: cell-based; settings: calculated from tabulated EC50 data (Jak1 / Tyk2)
T1 construct: endogenous in cells; host or cells: TF1 cells
Method: 2. JAK1 (PSTAT3 TF1) ALPHA SCREEN ASSAY
IL-6 is known to transduce its signal through IL-6 receptor via Jak1. Activity against Jak1 was therefore measured by determining inhibition of IL-6 induced phosphorylation of STAT3 in TF1 cells.
Cell Type: TF1 Cells; Culture Medium: RPMI 1640 Medium, 2mM L-glutamine, 10% heat- inactivated fetal bovine serum (FBS), 10 mM hydroxyethyl piperazineethanesulfonic acid (HEPES), and 2 ng/mL recombinant human interleukin-6(IL-6); Assay Medium: Dulbecco's Modified Eagle Medium (DMEM) medium with 2 mM L-glutamine, 10 mM HEPES, 100 U/mL penicillin/streptomycin, 1.5 g/L sodium bicarbonate, 4.5 g/L glucose, 1 mM sodium pyruvate, 10% heat-inactivated FBS; Compound Preparation: Compounds are dissolved in 100% dimethyl sulfoxide (DMSO).
Day One—Starve Cells: 4 Flasks for one 384 plate (spin down @1000 rpm for 10 minutes and add RPMI 1640 Medium, 2 mM L-glutamine, 10% FBS, 10 mM HEPES with no IL-6 -incubate overnight).
(§1) Day Two—Compound Dilutions:
i. Manual 8-point 1:5 dilution curve: 5 mM top concentration dispensed in row A of a
Corning 96-well polypropylene plate, columns 2-12. DMSO dispensed in position A01 for low and high controls. Compounds were serially diluted 1:5 by adding 10 μL stock to […] DMSO down the plate.
ii. Media dilution of compounds: Serially diluted compounds were further diluted 1:12.5 in assay medium by adding 4 μL compound to 46 μL assay medium in a Corning 96-well polypropylene plate.
384 Alpha Screen Plate Set up: Transfer 2.5 μL/well of compound solution from assay media dilution plate. Replicates were vertical, one column of the 96-well dilution plate goes into one column on the 384-well plate twice. Plated 1×10^5 starved cells/well in 5 μL. Washed cells in 10 mL DMEM medium after spinning down. Brought cell pellet up in assay media. Counted live cells. Multiplied by dilution factor and 10,000 (constant) to get the concentration of viable cells. Multiplied by volume of assay media used to bring up cells to get the total number of live cells. Divided by 20,000,000 cells/mL to get the volume needed. Cells were plated at 5 μL/well in gray Alpha Screen 384-well plate. Spinned the plate to bring the contents to the bottom of the wells at 300 rpm for 60 seconds. Top final compound concentration: 25 μM. Sealed with adhesive and tapped gently. Incubated plate at 37° C. for 30 minutes. c. IL-6 Stimulation (pSTAT3)
Once cells were in incubator, immediately prepared working stock of IL-6 (100 ng/mL final concentration). IL-6 stock=10 μg/mL of IL-6 in phosphate buffered saline with 0.1% bovine serum albumin. Diluted 1:25 by adding 60 μL stock IL-6 to 1440 μL assay media. Added 2.5 μL IL-6 to each well. Spinned plate at 300 rpm briefly; tapped the plate gently before covering with an adhesive seal. Incubated plate at 37° C. for 30 minutes.
Added 2.5 μL of 5X Lysis buffer to each well. Incubated at room temperature on orbital shaker for 10 minutes.
e. Protein (A) Acceptor Beads Preparation:
(§2) Phosphorylated Signal Transducer and Activator of Transcription 3 (pSTAT3) was quantified using the PerkinElmer SureFire pSTAT3 (Tyrosine 705) Assay. Calculated total volume needed (wells×154 μL×25%). Divided total volume by 5 to get volume of activation buffer. Subtracted volume of activation buffer from total volume and divide by 40 to get volume of acceptor beads (add last). Total volume−acceptor bead volume−activation buffer=volume of reaction buffer. Added 15 μL to each well and covered with foil. Shaked on orbital shaker for 2 hours at 500 rpm.
(§3) f. Streptavidin Donor Beads Preparation:
Calculated total volume needed (wells×[…]×25%). Divided total volume by 20 to get volume of donor beads (add last). Subtracted volume of donor beads from total volume to get volume of dilution buffer. Added 6 μL to each well and covered with foil. Shaked on orbital shaker overnight at 500 rpm.
Read plate on a Perkin Elmer Envision. […]

[2] = target: T2, Jak2 (Homo sapiens, UniProt O60674); assay: Jak2 (PSTATS UT7) alpha screen assay: inhibition of EPO induced phosphorylation of STAT5 in UT7 cells; assay type: cell-based; settings: calculated from tabulated EC50 data (Jak2 / Tyk2)
T2 construct: Cell Type: UT7 cells engineered to express the erythropoietin (EPO) receptor; endogenous in cells; host or cells: UT7 cells engineered to express the EPO receptor
Method: 3. JAK2 (PSTATS UT7) ALPHA SCREEN ASSAY
Erythropoietin (EPO) is known to transduce its signal through EPO receptor via Jak2. Activity against Jak2 was therefore measured by determining inhibition of EPO induced phosphorylation of STATS in UT7 cells. […] Materials
Cell Type: UT7 cells engineered to express the erythropoietin (EPO) receptor; Culture Medium: Dulbecco's Modified Eagle Medium (DMEM) with 2 mM L-glutamine, 10 mM hydroxyethyl piperazineethanesulfonic acid (HEPES), 10% heat-inactivated fetal bovine serum (FBS) and Stock EPO (5000U in 250 uL, need 5U/mL, so add 250 μL to 1L of media); Assay Medium: 5% FBS ultra-low IgG and 1% Pen/Strep. Compounds were made-up in 100% dimethyl sulfoxide (DMSO).
Day One - Starve Cells: 4 Flasks for one 384 plate (spin down @1000 rpm for 10 minutes and add DMEM with no EPO).
as §1
i. Manual 8-point 1:3 dilution curve: 5 mM top concentration dispensed in row A of a
Corning 96-well polypropylene plate, columns 2-12. DMSO dispensed in position A01 for low and high controls. Compounds were serially diluted 1:3 by adding 10 μL stock to 20 μL DMSO down the plate.
ii. Media dilution of compounds: Serially diluted compounds were diluted 1:50 in assay medium by adding 4 μL compound to 196 μL assay medium in a Corning 96-well polypropylene plate.
384 Alpha Screen Plate Set up: Transferred 2.5 μL/well of compound solution from last dilution plate. Replicates were vertical, so that one column of the 96-well dilution plate goes into one column on the 384-well plate twice. Plated 1×10^5 starved cells/well in 5μL. Washed cells in 10 mL Hank's balanced salt solution (HBSS) after spinning down. Counted live cells. Multiplied by dilution factor and 10,000 (constant) to get the concentration of viable cells. Multiplied by volume of cells to get the total number of live cells. Divided by 20,000,000 cells/mL to get the volume needed. Subtracted the original volume to get the volume to be added to get the final concentration of cells. Mixed in reservoir if needed, ensuring that all cell clumps are broken up (if not broken up, they were removed from the suspension). Cells were plated at 5 μL/well in gray Alpha Screen 384-well plate. Spinned the plate to bring the contents to the bottom of the wells at 400 rpm for 2 minutes. Top final compound concentration: 25 μM. Sealed with adhesive and tapped gently. Incubated cells at 37° C. for 30 minutes.
c. EPO Stimulation (p STATS)
Once cells were in incubator, immediately prepared working stock of EPO (1 nM final assay concentration). EPO stock=2860 nM of sterile filtered liquid in sodium citrate buffer (1 liter of ddH2O containing 5.9 g of sodium citrate, 5.8 g of sodium chloride and 0.06 g of citric acid). Diluted 1:22.72 by adding 4.44 stock EPO to 95.6 pi assay media, then dilute again […] depending on how much volume is needed for the assay plates. Used assay medium to bring to volume. Added 2.5 μL EPO to each well. Spinned plate at 400 rpm briefly; tap the plate gently before covering with an adhesive seal. Cells were incubated at 37° C. for 20 minutes.
Added 2.5 μL of 5X Lysis buffer to each well. Spinned plate at 400 rpm briefly. Incubated at room temperature (on orbital shaker) for 10 minutes.
e. Protein (A) Acceptor Beads Preparation: (Light sensitive)
as §2, with “5 (pSTAT5)” for “3 (pSTAT3)”, “pSTATS” for “pSTAT3”, “694/699)” for “705)”, “(wells×15 μL×30%).” for “(wells×154 μL×25%).”, “volume - acceptor” for “volume−acceptor”, “volume - activation buffer to get volume” for “volume−activation buffer=volume”
as §3
Calculated total volume needed (wells×6μL×30%). […]

T2 sequence (O60674 whole entry): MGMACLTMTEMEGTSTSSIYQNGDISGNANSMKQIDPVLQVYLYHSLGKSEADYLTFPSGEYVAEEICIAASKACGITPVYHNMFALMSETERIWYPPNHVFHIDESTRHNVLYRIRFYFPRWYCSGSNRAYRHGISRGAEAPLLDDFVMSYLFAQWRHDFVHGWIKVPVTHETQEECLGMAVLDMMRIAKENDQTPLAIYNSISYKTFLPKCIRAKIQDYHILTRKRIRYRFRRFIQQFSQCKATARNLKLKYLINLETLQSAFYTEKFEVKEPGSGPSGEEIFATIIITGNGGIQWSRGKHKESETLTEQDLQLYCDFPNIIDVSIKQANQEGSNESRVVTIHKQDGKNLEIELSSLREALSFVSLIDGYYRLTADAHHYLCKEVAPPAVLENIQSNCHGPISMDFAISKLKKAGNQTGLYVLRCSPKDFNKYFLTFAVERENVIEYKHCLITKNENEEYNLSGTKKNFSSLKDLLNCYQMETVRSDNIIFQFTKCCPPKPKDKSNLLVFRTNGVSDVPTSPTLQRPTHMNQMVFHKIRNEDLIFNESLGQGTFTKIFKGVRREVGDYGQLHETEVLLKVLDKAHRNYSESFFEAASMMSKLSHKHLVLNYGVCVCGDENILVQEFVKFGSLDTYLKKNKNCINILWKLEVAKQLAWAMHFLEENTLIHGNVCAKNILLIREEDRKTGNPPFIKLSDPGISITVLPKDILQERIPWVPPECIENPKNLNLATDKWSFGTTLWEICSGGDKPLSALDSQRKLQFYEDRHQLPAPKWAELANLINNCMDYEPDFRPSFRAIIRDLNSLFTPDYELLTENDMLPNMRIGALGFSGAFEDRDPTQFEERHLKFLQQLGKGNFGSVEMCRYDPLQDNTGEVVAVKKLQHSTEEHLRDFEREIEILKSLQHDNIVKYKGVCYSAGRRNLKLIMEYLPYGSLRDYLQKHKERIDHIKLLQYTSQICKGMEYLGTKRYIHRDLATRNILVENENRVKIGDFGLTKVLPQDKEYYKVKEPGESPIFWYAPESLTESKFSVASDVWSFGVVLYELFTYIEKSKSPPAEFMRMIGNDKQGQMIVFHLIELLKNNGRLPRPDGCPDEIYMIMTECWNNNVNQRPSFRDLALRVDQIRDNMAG
T1 sequence (P23458 whole entry): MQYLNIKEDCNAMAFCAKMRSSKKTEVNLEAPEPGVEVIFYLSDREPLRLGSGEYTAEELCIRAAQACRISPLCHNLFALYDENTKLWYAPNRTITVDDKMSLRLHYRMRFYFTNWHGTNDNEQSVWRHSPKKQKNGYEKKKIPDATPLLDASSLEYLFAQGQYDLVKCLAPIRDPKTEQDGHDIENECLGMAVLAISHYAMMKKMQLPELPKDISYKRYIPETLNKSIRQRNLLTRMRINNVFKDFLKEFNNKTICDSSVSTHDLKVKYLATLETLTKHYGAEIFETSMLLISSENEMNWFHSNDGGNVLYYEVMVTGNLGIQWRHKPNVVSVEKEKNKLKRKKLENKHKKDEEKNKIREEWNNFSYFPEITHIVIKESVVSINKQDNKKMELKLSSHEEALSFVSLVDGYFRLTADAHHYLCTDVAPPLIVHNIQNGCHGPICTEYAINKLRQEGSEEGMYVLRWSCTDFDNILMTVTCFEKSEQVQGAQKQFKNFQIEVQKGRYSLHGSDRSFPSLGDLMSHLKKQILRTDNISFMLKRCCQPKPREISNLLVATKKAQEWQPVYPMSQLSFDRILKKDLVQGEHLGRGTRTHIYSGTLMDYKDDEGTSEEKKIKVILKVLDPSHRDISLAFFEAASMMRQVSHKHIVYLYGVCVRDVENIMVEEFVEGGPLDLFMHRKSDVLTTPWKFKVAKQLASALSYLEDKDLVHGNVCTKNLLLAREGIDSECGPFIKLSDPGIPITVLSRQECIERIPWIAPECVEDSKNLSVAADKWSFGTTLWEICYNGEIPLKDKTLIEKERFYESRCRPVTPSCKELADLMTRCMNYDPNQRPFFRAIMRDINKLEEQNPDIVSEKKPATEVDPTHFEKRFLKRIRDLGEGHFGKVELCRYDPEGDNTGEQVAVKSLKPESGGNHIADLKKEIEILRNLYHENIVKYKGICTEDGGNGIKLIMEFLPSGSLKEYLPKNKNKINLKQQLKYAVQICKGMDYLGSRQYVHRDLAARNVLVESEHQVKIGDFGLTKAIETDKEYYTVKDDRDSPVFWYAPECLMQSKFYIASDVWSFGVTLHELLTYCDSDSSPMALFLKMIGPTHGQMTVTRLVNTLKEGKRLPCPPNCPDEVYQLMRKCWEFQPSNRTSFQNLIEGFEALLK

| SMILES | Tyk2 selectivity over Jak1 [1] | Tyk2 selectivity over Jak2 [2] |
| --- | --- | --- |
| CO[C@@]1(c2cccc(-c3cn(C)c4cnc(NC(N)=O)cc34)n2)CCOC1 [Example 1, (R)-1-(3-(6-(3-Methoxytetrahydrofuran-3-yl)pyridin-2-yl)-1-methyl-1H-pyrrolo[2,3-c]pyridin-5-yl)urea] | 92-fold | >424-fold |
| CO[C@@]1(c2cccc(-c3cn([C@@H]4CC4(F)F)c4cnc(NC(N)=O)cc34)n2)CCOC1 [Example 1.2, 1-(1-((R)-2,2-difluorocyclopropyl)-3-(6-((R)-3-methoxytetrahydrofuran-3-yl)pyridin-2-yl)-1H-pyrrolo[2,3-c]pyridin-5-yl)urea] | 300-fold | >556-fold |
| CO[C@@]1(c2cc(C)cc(-c3cn(C)c4cnc(NC(N)=O)cc34)n2)CCOC1 [Example 1b.2, (R)-1-(3-(6-(3-methoxytetrahydrofuran-3-yl)-4-methylpyridin-2-yl)-1-methyl-1H-pyrrolo[2,3-c]pyridin-5-yl)urea] | 840-fold | >1000-fold |
| COC1(c2cccc(-c3cn(C)c4cnc(NC(N)=O)cc34)n2)COC1 [Example 1b.4, 1-(3-(6-(3-methoxyoxetan-3-yl)pyridin-2-yl)-1-methyl-1H-pyrrolo[2,3-c]pyridin-5-yl)urea] | 54-fold | >176-fold |
| Cn1cc(-c2cncc([C@]3(C)CCOC3)n2)c2cc(NC(N)=O)ncc21 [Example 1b.5, (S)-1-(1-methyl-3-(6-(3-methyltetrahydrofuran-3-yl)pyrazin-2-yl)-1H-pyrrolo[2,3-c]pyridin-5-yl)urea] | 83-fold | >1389-fold |
| Cn1cc(-c2cncc([C@@]3(C)CCOC3)n2)c2cc(NC(N)=O)ncc21 [Example 1b.6, (R)-1-(1-methyl-3-(6-(3-methyltetrahydrofuran-3-yl)pyrazin-2-yl)-1H-pyrrolo[2,3-c]pyridin-5-yl)urea] | 22-fold | >128-fold |
| COCc1cc(-c2cn(C)c3cnc(NC(C)=O)cc23)nc([C@]2(OC)CCOC2)c1 [Example 2, (R)-N-(3-(4-(Methoxymethyl)-6-(3-methoxytetrahydrofuran-3-yl)pyridin-2-yl)-1-methyl-1H-pyrrolo[2,3-c]pyridin-5-yl)acetamide] | >317-fold | >198-fold |
| CO[C@@]1(c2cc(C)cc(-c3cn(C)c4cnc(NC(C)=O)cc34)n2)CCOC1 [Example 2.2, (R)-N-(3-(6-(3-methoxytetrahydrofuran-3-yl)-4-methylpyridin-2-yl)-1-methyl-1H-pyrrolo[2,3-c]pyridin-5-yl)acetamide] | 207-fold | >126-fold |
| CO[C@@]1(c2cc(C(F)F)cc(-c3cn(C)c4cnc(NC(C)=O)cc34)n2)CCOC1 [Example 2.8, (R)-N-(3-(4-(difluoromethyl)-6-(3-methoxytetrahydrofuran-3-yl)pyridin-2-yl)-1-methyl-1H-pyrrolo[2,3-c]pyridin-5-yl)acetamide] | 405-fold | >595-fold |
| CC[C@]1(c2cc(C#N)cc(-c3cn(C)c4cnc(NC(C)=O)cc34)n2)CCOC1 [Example 2.11, (R)-N-(3-(4-cyano-6-(3-ethyltetrahydrofuran-3-yl)pyridin-2-yl)-1-methyl-1H-pyrrolo[2,3-c]pyridin-5-yl)acetamide] | 72-fold | >240-fold |
| CO[C@@]1(c2cc(C#N)cc(-c3cn([C@@H]4CC4(F)F)c4cnc(NC(C)=O)cc34)n2)CCOC1 [Example 2a.3, N-(3-(4-cyano-6-((R)-3-methoxytetrahydrofuran-3-yl)pyridin-2-yl)-1-((R)-2,2-difluorocyclopropyl)-1H-pyrrolo[2,3-c]pyridin-5-yl)acetamide] | 440-fold | >197-fold |
| COCc1cc(-c2cn(C)c3cnc(NC(C)=O)cc23)nc([C@@]2(CO)CCOC2)c1 [Example 22a, (R)-N-(3-(6-(3-(hydroxymethyl)tetrahydrofuran-3-yl)-4-(methoxymethyl)pyridin-2-yl)-1-methyl-1H-pyrrolo[2,3-c]pyridin-5-yl)acetamide] |  | >21-fold |
